Experimental data reported in patent US8222004B2, “Diagnosis and treatment of autism using CD38” (National University Corporation Kanazawa University, priority 2006, dated 2012).

Experiments:
[1] = system: postpartum female CD38−/− mice; test: Maternal behaviors of postpartum female mice (pup retrieval, crouching) after subcutaneous peptide administration; type: in vivo, mouse; settings: once, 1 to 10 ng/kg
Description: Then, each mother mouse was put back at a corner of a cage, and the pups were placed at remaining 3 corners. In this state, behaviors of the mother mouse were observed. A latency to retrieve each pup and a duration of crouching over 3 pups were also measured.
According to a previously described method (Boccia, M. M., et al., Neurobiol. Learn. Memory 69, 136-146 (1998)), oxytocin (OT) or vasopressin (AVP) dissolved in 0.05 M acetic acid was adjusted to 0.01 μM with saline, and this solution was subcutaneously administered once at a dose of 1 to 10 ng/kg body weight […] to the postpartum female CD38−/− mice (N=6 to 8) described above and young male mice (N=10 per group).

[2] = system: male CD38−/− and wild-type mice; test: Social memory of male mice (olfactory investigation time on repeated encounters); type: in vivo, mouse; settings: subcutaneous, once, 1 to 10 ng/kg; for social memory (olfactory investigation): young male CD38−/− mice
students = settings: 194 students, intranasal administration, versus placebo; cited from earlier work
[3] = system: pituitary nerve terminals; test: Oxytocin release from isolated pituitary nerve terminals (in vitro); type: cell-based, mouse
Description: (§1) Cell bodies of hypothalamic neurons and nerve terminals were isolated according to a previously described method (OuYang, W., et al., Brain Res. 1024, 203-21.1 (2004)), then washed with a Locke solution, and homogenized in a solution containing sucrose, 270; HEPES-Tris, 10; and K-EGTA, 0.01 (in mM, pH 7.25). The homogenates were transferred to Petri dishies and left standing for 5 to 8 minutes.
Isolated cells and nerve terminals were left standing for 6 hours, and then, an experiment was started. The specimens were perfused for 45 minutes, and the perfusate was collected at last 5-minute intervals three times in total for control concentration measurement. Subsequently, the specimens were perfused for additional 5 minutes with Locke solution containing 70 mmol of KC1, and oxytocin concentrations in the obtained perfusates were determined using an oxytocin determination kit and considered as concentrations of oxytocin released by depolarization stimulation.

[4] = molecular target: ADP-ribosyl cyclase activity (Homo sapiens, UniProt P28907, R140W); settings: mutated CD38 found in human diabetes; cited from earlier work
Sequence of ADP-ribosyl cyclase activity (P28907 whole entry R140W): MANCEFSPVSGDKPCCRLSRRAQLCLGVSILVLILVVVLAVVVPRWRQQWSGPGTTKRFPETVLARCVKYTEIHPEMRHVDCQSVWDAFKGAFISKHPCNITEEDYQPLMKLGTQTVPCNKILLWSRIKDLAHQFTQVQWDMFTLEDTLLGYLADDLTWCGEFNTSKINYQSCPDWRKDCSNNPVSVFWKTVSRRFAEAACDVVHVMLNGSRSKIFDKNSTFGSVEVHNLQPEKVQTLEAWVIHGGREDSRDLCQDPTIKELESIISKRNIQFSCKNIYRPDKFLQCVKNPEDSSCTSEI

isolated nerve terminals = test: Intracellular Ca2+ concentration in isolated nerve terminals (Oregon Green); type: cell-based, mouse; settings: wild-type mice; 50 mM KCl
Description: as §1
The cells were incubated with Oregon Green for 1 hour to incorporate the dye into the cells. Subsequently, a fluorescence intensity of the cells was measured using an excitation wavelength of 485 nm and a filter of 538 nm. A fluorescence microspectrophotometer and a condenser with an ARGUS-50 CCD camera were used for the measurement.

CC[C@H](C)[C@@H]1NC(=O)[C@H](Cc2ccc(O)cc2)NC(=O)[C@@H](N)CSSC[C@@H](C(=O)N2CCC[C@H]2C(=O)N[C@@H](CC(C)C)C(=O)NCC(N)=O)NC(=O)[C@H](CC(N)=O)NC(=O)[C@H](CCC(N)=O)NC1=O [oxytocin]
maternal behaviors (latency to retrieve pups, duration of crouching) [1]: recovered to same levels of maternal behaviors as those of the wild-type mice | change in behaviors of wild-type mice [2]: no change | social memory (olfactory investigation) [2]: recovered a social memory | investment in an investment game (trust, prosocial behavior) (students): invested more money and more frequently invested a maximum allowable than the placebo group

CO/C1=C\C(C)=C\[C@@H](C)[C@@H](O)[C@@H](C)C/C(C)=C/C=C/[C@H](OC)[C@@H]([C@@H](C)[C@@H](O)[C@H](C)[C@@]2(O)C[C@@H](O)[C@H](C)[C@@H](C(C)C)O2)OC1=O [bafilomycin]
oxytocin release from the pituitary nerve terminals ([3]; wild-type mice, 2 μM, high-potassium depolarization): decreased to same levels as those in the CD38−/− mice

NC(=O)CC[C@@H]1NC(=O)[C@H](Cc2ccccc2)NC(=O)[C@H](Cc2ccc(O)cc2)NC(=O)[C@@H](N)CSSC[C@@H](C(=O)N2CCC[C@H]2C(=O)N[C@@H](CCCN=C(N)N)C(=O)NCC(N)=O)NC(=O)[C@H](CC(N)=O)NC1=O [vasopressin]
change in behaviors of wild-type mice [2]: no change | social memory (olfactory investigation) [2]: no detectable change

mutated CD38: human CD38 with substitution of tryptophan for arginine at position 140, found in human diabetes
ADP-ribosyl cyclase activity relative to normal [4]: about ⅓

ryanodine
increase in intracellular Ca2+ concentration (isolated nerve terminals): significantly inhibited | oxytocin release from the pituitary nerve terminals ([3]; wild-type mice, 200 μM, high-potassium depolarization): decreased to same levels as those in the CD38−/− mice

N=c1c2ncn3c2ncn1[C@@H]1O[C@H](COP(=O)(O)OP(=O)(O)OC[C@H]2O[C@@H]3[C@H](O)[C@@H]2O)[C@@H](O)[C@H]1O [cADPR, cyclic ADP-ribose]
increase of oxytocin release ([3]; CD38−/− mice, pituitary nerve terminals, 10 μM): 2.5 fold | oxytocin release from the pituitary nerve terminals ([3]; all the mice, initially stimulated with Ca2+, 10 μM given outside the cells): promoted

Nc1ncnc2c1ncn2[C@@H]1O[C@H](COP(=O)(O)OP(=O)(O)OCC2OC([n+]3cccc(C(=O)[O-])c3)C(O)C2O)[C@@H](O)[C@H]1OP(=O)(O)O (stereo in doubt) [NAADP, nicotinate adenine dinucleotide phosphate]
oxytocin release from the pituitary nerve terminals ([3]; all the mice, initially stimulated with Ca2+, 100 nM given outside the cells): promoted

8-bromo-cADPR
increase in intracellular Ca2+ concentration (isolated nerve terminals): significantly inhibited | oxytocin release from the pituitary nerve terminals ([3]; wild-type mice, 100 μM, high-potassium depolarization): decreased to same levels as those in the CD38−/− mice
